How the values were obtained:
[1] = Glutathione reactivity of the compound in DMSO and phosphate buffer assessed as second order rate constant for adduct formation
[2] = Cytotoxicity against human H1HeLa cells after 2 days by XTT/PMS dye based assay; assay type: cell-based, H1-HeLa
rhinovirus B14 [3] = assay: Antiviral activity against rhinovirus serotype 14 infected in human H1HeLa cells after 2 days by XTT/PMS dye based assay; assay type: functional, cell-based; conditions: Rhinovirus B, H1-HeLa, 48 h
rhinovirus B14 [4] = assay: Irreversible inhibition of human rhinovirus serotype 14 3C protease assessed as ratio of Kobs/I by spectrofluorimetric analysis
[5] = Cysteamine reactivity of the compound in TRIS-HCL assessed as second order rate constant at 40 uM and pH 7.4
[6] = Thiol reactivity of the compound in DMSO/PBS buffer assessed as adduct formation by measuring half life of parent compound by 1H NMR analysis; assay type: physicochemical
[7] = Thiol reactivity of the compound in PBS/DMSO buffer assessed as pseudo-first order rate constant for adduct formation
[8] = Glutathione reactivity of the compound in PBS buffer assessed as rate constant for 1,4-adduct formation at pH 7.4
[9] = Cysteine reactivity of the compound assessed as second order rate constant by 1H NMR analysis
518A2 = assay: Cytotoxicity against human 518A2 cells assessed as reduction in cell viability after 96 hrs by SRB asssay; assay type: functional, cell-based; conditions: 518A2, 96 h
A549 = assay: Cytotoxicity against human A549 cells assessed as reduction in cell viability after 96 hrs by SRB asssay; assay type: functional, cell-based; conditions: A549, 96 h
MCF7 = assay: Cytotoxicity against human MCF7 cells assessed as reduction in cell viability after 96 hrs by SRB asssay; assay type: functional, cell-based; conditions: MCF7, 96 h
A-431 = assay: Cytotoxicity against human A431 cells assessed as reduction in cell viability after 96 hrs by SRB asssay; assay type: functional, cell-based; conditions: A-431, 96 h
HT-29 = assay: Cytotoxicity against human HT-29 cells assessed as reduction in cell viability after 96 hrs by SRB asssay; assay type: functional, cell-based; conditions: HT-29, 96 h

For C/C=C(\C)C(=O)OC, which K [1] is on record?
Its K is 0.007 M⁻¹ s⁻¹.

Which results are given for CC(=O)N1CC/C(=C\[C@H](CCC(N)=O)NC(=O)[C@H](Cc2ccccc2)NC(=O)[C@H](CC(C)C)NC(=O)OCc2ccccc2)C1=O?
CC50 at 48 h [2]: > 100 µM; EC50 (rhinovirus B14 [3]): 0.71 µM; Ratio (rhinovirus B14 [4]): 156000 M⁻¹ s⁻¹

Which K [5] does the source give for COc1ccc(C(C(=O)c2ccc(OC)cc2OC)C(SCCN)c2ccc(OC)c(OC)c2)cc1 (stereo unspecified) here?
Its K is 0.0086 M⁻¹ s⁻¹.

With CCOC(=O)/C(F)=C/[C@H](CCC(N)=O)NC(=O)[C@H](Cc1ccccc1)NC(=O)[C@H](CC(C)C)NC(=O)OCc1ccccc1 as the molecule, how does the CC50 at 48 h [2] read?
The CC50 at 48 h was greater than 320 µM.

What about the EC50 (rhinovirus B14 [3]) of the same molecule?
The EC50 was greater than 320 µM.

And the Ratio (rhinovirus B14 [4])?
The Ratio was 60 M⁻¹ s⁻¹.

With CC(C)C[C@H](NC(=O)OCc1ccccc1)C(=O)N[C@@H](Cc1ccccc1)C(=O)N[C@H](/C=C/C(=O)N1CC=CC1)CCC(N)=O as the molecule, how does the CC50 at 48 h [2] read?
The CC50 at 48 h was 44 µM.

And the EC50 (rhinovirus B14 [3])?
Its EC50 is greater than 44 µM.

What about the Ratio (rhinovirus B14 [4]) of the same molecule?
The Ratio was 8500 M⁻¹ s⁻¹.

With COc1ccc(C(=O)C(C(=O)O)C(SCCN)c2ccc(OC)c(OC)c2)c(OC)c1 (stereo unspecified) as the molecule, how does the K [5] read?
The K was 0.0037 M⁻¹ s⁻¹.

Which CC50 at 48 h [2] does the source give for COC(=O)/C=C/[C@H](CCC(N)=O)NC(=O)[C@H](Cc1ccccc1)NC(=O)[C@H](CC(C)C)NC(=O)OCc1ccccc1 here?
The CC50 at 48 h was greater than 320 µM.

What about the EC50 (rhinovirus B14 [3]) of the same molecule?
Its EC50 is 1.3 µM.

What about the Ratio (rhinovirus B14 [4]) of the same molecule?
Its Ratio is 20000 M⁻¹ s⁻¹.

With COc1ccc(C(=O)C(C)C(SCCN)c2ccc(OC)c(OC)c2)c(OC)c1 (stereo unspecified) as the molecule, how does the K [5] read?
Its K is 0.0075 M⁻¹ s⁻¹.

With N#CC(c1ccncc1)C(SCCO)c1ccccc1 (stereo unspecified) as the molecule, how does the t1/2 [6] read?
The t1/2 was 4.6 min.

Which K [1] does the source give for CCCC/C=C/C=C/C=O here?
Its K is 3.49 M⁻¹ s⁻¹.

With CCCCC/C=C/C=O as the molecule, how does the K [1] read?
The K was 18 M⁻¹ s⁻¹.

For C=CC(=O)Nc1ccc(OC)cc1, which K [7] is on record?
The K was 3.9 ×10⁻⁵ /s.

Which K [8] does the source give for CC(O)C(CC1NC(C(=O)O)CS1)SC[C@H](C)C(=O)O (stereo partly specified) here?
Its K is 1.1 M⁻¹ s⁻¹.

For CCCC/C=C/C(C)=O, which K [1] is on record?
The K was 11.4 M⁻¹ s⁻¹.

For O=C/C=C/c1ccccc1, which K [5] is on record?
Its K is 0.64 M⁻¹ s⁻¹.

Which CC50 at 48 h [2] does the source give for CCNC(=O)/C=C/[C@H](CCC(N)=O)NC(=O)[C@H](Cc1ccccc1)NC(=O)[C@H](CC(C)C)NC(=O)OCc1ccccc1 here?
Its CC50 at 48 h is greater than 320 µM.

What about the EC50 (rhinovirus B14 [3]) of the same molecule?
The EC50 was greater than 320 µM.

And the Ratio (rhinovirus B14 [4])?
The Ratio was 350 M⁻¹ s⁻¹.

For CC(=O)C=C(C)C, which K [1] is on record?
Its K is 0.208 M⁻¹ s⁻¹.

For COC(=O)/C=C/CNC(=O)c1ccc(OC)cc1, which K [7] is on record?
The K was 3.7 ×10⁻⁴ /s.

With CC(=O)/C=C/[C@H](CCC(N)=O)NC(=O)[C@H](Cc1ccccc1)NC(=O)[C@H](CC(C)C)NC(=O)OCc1ccccc1 as the molecule, how does the CC50 at 48 h [2] read?
The CC50 at 48 h was 60 µM.

And the EC50 (rhinovirus B14 [3])?
Its EC50 is 2 µM.

And the Ratio (rhinovirus B14 [4])?
Its Ratio is 54000 M⁻¹ s⁻¹.

Which CC50 at 48 h [2] does the source give for CCOC(=O)/C=C/[C@H](CCC(N)=O)NC(=O)[C@H](Cc1ccccc1)NC(=O)[C@H](CC(C)C)NC(=O)OCc1ccccc1 here?
Its CC50 at 48 h is greater than 320 µM.

Which K [5] does the source give for COc1cc(/C=C/C(=O)CC(=O)/C=C/c2ccc(O)c(OC)c2)ccc1O here?
Its K is 0.066 M⁻¹ s⁻¹.

With COc1ccc(C(=O)C(c2ccccc2)C(SCCN)c2ccc(OC)c(OC)c2)c(OC)c1 (stereo unspecified) as the molecule, how does the K [5] read?
The K was 0.0067 M⁻¹ s⁻¹.

For C=C(C)C=O, which K [1] is on record?
The K was 203 M⁻¹ s⁻¹.

With CCCCC/C=C/C(=O)OC as the molecule, how does the K [1] read?
The K was 0.785 M⁻¹ s⁻¹.

Which K [1] does the source give for CC(C)=CC=O here?
The K was 1.71 M⁻¹ s⁻¹.

With COc1ccc(C(=O)C(I)C(SCCN)c2ccc(OC)c(OC)c2)c(OC)c1 (stereo unspecified) as the molecule, how does the K [5] read?
The K was 0.28 M⁻¹ s⁻¹.

For CCOC(=O)C(C(=O)c1ccc(OC)cc1OC)C(SCCN)c1ccc(OC)c(OC)c1 (stereo unspecified), which K [5] is on record?
Its K is 0.28 M⁻¹ s⁻¹.

With COc1ccc(C(=O)C(Cl)C(SCCN)c2ccc(OC)c(OC)c2)c(OC)c1 (stereo unspecified) as the molecule, how does the K [5] read?
Its K is 1.6 M⁻¹ s⁻¹.

For C=C(C)C(=O)O[C@H]1CC2=C[C@@H](C[C@@]3(C)O[C@H]3[C@H]3OC(=O)C(CSC[C@H](N)C(=O)O)[C@@H]31)OC2=O (stereo partly specified), which K [9] is on record?
The K was 1.7 M⁻¹ s⁻¹.

For C/C=C(\C)C(C)=O, which K [1] is on record?
Its K is 0.779 M⁻¹ s⁻¹.

For CS(=O)(=O)/C=C/CNC(=O)c1ccccc1, which K [7] is on record?
Its K is 3.9 ×10⁻³ /s.

For CCOC(=O)/C(C)=C/[C@H](CCC(N)=O)NC(=O)[C@H](Cc1ccccc1)NC(=O)[C@H](CC(C)C)NC(=O)OCc1ccccc1, which CC50 at 48 h [2] is on record?
The CC50 at 48 h was greater than 320 µM.

And the EC50 (rhinovirus B14 [3])?
The EC50 was 3 µM.

What about the Ratio (rhinovirus B14 [4]) of the same molecule?
The Ratio was 7300 M⁻¹ s⁻¹.

Which K [1] does the source give for C=CC#CC(C)=O here?
Its K is 80 M⁻¹ s⁻¹.

Which CC50 at 48 h [2] does the source give for CC(C)C[C@H](NC(=O)OCc1ccccc1)C(=O)N[C@@H](Cc1ccccc1)C(=O)N[C@H](/C=C/C(=O)n1ccc2ccccc21)CCC(N)=O here?
Its CC50 at 48 h is 29 µM.

And the EC50 (rhinovirus B14 [3])?
The EC50 was 1.8 µM.

And the Ratio (rhinovirus B14 [4])?
The Ratio was 53000 M⁻¹ s⁻¹.

With CC1=CC[C@]23O[C@@]2(C)CC[C@@H]2[C@H](OC(=O)[C@H]2CSc2ccccc2C(=O)O)[C@@H]13 as the molecule, how does the IC50 (518A2) read?
Its IC50 is 16.9 µM.

And the IC50 (A549)?
Its IC50 is 10.1 µM.

And the IC50 (MCF7)?
The IC50 was 16.9 µM.

What about the IC50 (A-431) of the same molecule?
The IC50 was 13.6 µM.

And the IC50 (HT-29)?
The IC50 was 17.8 µM.

For Cc1csc(C(C#N)C(SCCO)C2CC2)n1 (stereo unspecified), which t1/2 [6] is on record?
Its t1/2 is 4.8 min.

Which K [1] does the source give for CC/C=C/C=O here?
The K was 28.3 M⁻¹ s⁻¹.

Which t1/2 [6] does the source give for Cc1csc(C(C#N)C(SCCO)c2ccccc2)n1 (stereo unspecified) here?
The t1/2 was less than 1 min.

Which K [1] does the source give for C=CCOC(=O)C=C here?
Its K is 19.6 M⁻¹ s⁻¹.

For COC(=O)/C=C/CNC(=O)c1ccc([N+](=O)[O-])cc1, which K [7] is on record?
The K was 5.9 ×10⁻⁴ /s.

For CC1=CC[C@]23O[C@@]2(C)CC[C@@H]2[C@H](OC(=O)[C@H]2CN2CCNCC2)[C@@H]13, which IC50 (518A2) is on record?
The IC50 was 15 µM.

And the IC50 (A549)?
Its IC50 is 15.7 µM.

And the IC50 (MCF7)?
Its IC50 is 15.1 µM.

What about the IC50 (A-431) of the same molecule?
The IC50 was 4.4 µM.

What about the IC50 (HT-29) of the same molecule?
Its IC50 is 15.1 µM.

With COc1ccc(C(=O)C(F)C(SCCN)c2ccc(OC)c(OC)c2)c(OC)c1 (stereo unspecified) as the molecule, how does the K [5] read?
Its K is 0.017 M⁻¹ s⁻¹.
